Assay: In vitro drug release from enzymatically transesterified triglyceride coating on stainless steel samples
Format: physicochemical
Details: 5 weight % paclitaxel in enzymatically transesterified triglyceride coating; PBS with 0.02% (w/v) sodium azide, 37° C.; after 5 weeks; HPLC
Description: Transesterified triglyceride mixtures were made using the following procedure: • 30 weight % tristearin, 30 weight % triolein, 40 weight % trilinolein are put in a vacuum furnace at 70° C. during 1 hour • the mixture is stirred during 30 minutes at 75° C. • 1% of 1,3 specific lipase (lipozyme) is added to the mixture at 75° C. during 1 hour. • Filtration over Whatman no. 4 filter. The slip melting point of the resulting mixture was 60° C.
5 weight % of paclitaxel (taxol) and acetone were added to this triglyceride mixture, heated to 50° C. and stirred until homogeneous. Stainless steel samples were dipped into the solution followed by air-drying. The samples were put into 5 ml of release medium (PBS with 0.02% (w/v) sodium azide) at 37° C. and continuously shaken with a rocking table. At different time points, samples were put in a new vial with fresh release medium. The medium of the previous vials were analyzed with HPLC to determine the concentration of paclitaxel that was released. After the test, the remaining paclitaxel was liberated from the coating on the stainless steel samples by dissolving the coating in acetone at 50° C.

SMILES: CC(=O)O[C@H]1C(=O)[C@@]2(C)[C@H]([C@H](OC(=O)c3ccccc3)[C@]3(O)C[C@H](OC(=O)[C@H](O)[C@@H](NC(=O)c4ccccc4)c4ccccc4)C(C)=C1C3(C)C)[C@]1(OC(C)=O)CO[C@@H]1C[C@@H]2O [paclitaxel]
- percentage of drug released from coating: 75%
